Experimental data: EP1075256B1, “ARYLHYDROCARBON RECEPTOR LIGAND ANTAGONISTS” (priority 1998, dated 1999)

Key:
[1] = test system: CYP1A1; experiment: Induction of Cyp1A1 protein by dioxin in T-47D cells (Western blot); assay type: cell-based; conditions: for effets agonistes / antagonistes: 10^-5M
Method: Les cellules sont collectées et lavées dans le PBS, puis lysées par fusion-congélation répétée en conditions isotoniques. 75 µg de protéines sont analysées par électrophorèse en gel de polyacrylamide en conditions dénaturantes. Le gel est transféré sur une membrane de nylon. La membrane est saturée avec 5 % de lait écrémé et incubée avec un anticorps polyclonal de lapin (Daiichi Pure Chemicals Co, Japan) contre Cyp1A1. Les immuncomplexes sont détectés par chimioluminescence avec le kit Renaissance (DuPont). La figure 2 correspond à la photo du Western blot. La flèche montre la bande spécifique de Cyp1A1, les astérisques signalent des bandes non-spécifiques.

[2] = molecular target: T1, récepteur AhR (Oryctolagus cuniculus, UniProt O02747); experiment: Competition with tritiated dioxin for binding to the AhR receptor in rabbit liver cytosol; design: species or system lapin; conditions: for Kd: displacement of labelled dioxin, read-out: Kd apparent (converted)
T1 construct: On a utilisé un cytosol de foie de lapin pour ces études de compétition; from tissue; host or cells: rabbit liver cytosol
T1 sequence (O02747 1-847): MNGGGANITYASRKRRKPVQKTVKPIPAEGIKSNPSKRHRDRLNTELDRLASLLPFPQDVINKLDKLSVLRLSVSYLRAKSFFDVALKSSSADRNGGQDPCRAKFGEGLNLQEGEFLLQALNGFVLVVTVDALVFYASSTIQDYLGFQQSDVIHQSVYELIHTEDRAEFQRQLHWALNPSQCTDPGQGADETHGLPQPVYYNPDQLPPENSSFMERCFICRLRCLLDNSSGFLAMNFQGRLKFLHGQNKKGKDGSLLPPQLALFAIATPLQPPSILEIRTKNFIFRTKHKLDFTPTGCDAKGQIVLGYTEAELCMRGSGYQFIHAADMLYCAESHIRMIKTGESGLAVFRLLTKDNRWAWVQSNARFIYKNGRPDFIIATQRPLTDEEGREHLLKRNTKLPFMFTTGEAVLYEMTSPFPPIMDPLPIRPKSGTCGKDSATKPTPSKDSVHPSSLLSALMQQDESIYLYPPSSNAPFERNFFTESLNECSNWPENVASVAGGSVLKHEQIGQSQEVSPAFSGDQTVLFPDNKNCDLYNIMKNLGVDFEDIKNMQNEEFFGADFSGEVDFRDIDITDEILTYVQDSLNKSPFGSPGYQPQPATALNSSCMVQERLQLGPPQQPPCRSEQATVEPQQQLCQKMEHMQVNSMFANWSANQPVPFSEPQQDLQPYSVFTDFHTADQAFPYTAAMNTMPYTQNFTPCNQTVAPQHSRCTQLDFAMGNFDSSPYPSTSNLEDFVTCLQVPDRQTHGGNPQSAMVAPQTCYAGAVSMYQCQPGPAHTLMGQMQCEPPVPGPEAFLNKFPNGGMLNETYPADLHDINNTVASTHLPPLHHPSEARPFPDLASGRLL

[3] = test system: NAD(P)H quinone réductase; experiment: NAD(P)H quinone reductase (NQOR) activity in T-47D cells; assay type: cell-based; conditions: 10^-6 M, dioxine 10^-9 M, 72 h
Description: L'activité NQOR correspondante exprimée en nanomoles de cytochrome c réduit, par mg de protéines, par min, est donnée sur la figure 5.

[4] = test system: promoteur de la séquence répétée (LTR) de VIH-1; experiment: HIV-1 LTR promoter CAT construct (-452/+77) transfected in T-47D cells; assay type: cell-based; conditions: dioxine 10^-9 M
Description: On a transfecté les cellules T-47D avec une construction CAT contenant ce promoteur (-452/+77).

[5] = test system: élément de réponse à la dioxine; experiment: CAT reporter gene under control of a dioxin response element (DRE), stably transfected T-47D cells; assay type: cell-based; conditions: figure 1A, 10^-6 M de Resvératrol
Description: Les inventeurs ont entrepris d'identifier de nouveaux ligands du récepteur AhR. Pour ce faire, ils ont transfecté de façon stable une lignée de cellules de cancer du sein, T-47D, avec un gène rapporteur (la trans-acétylase du chloramphénicol, ou CAT) placé sous le contrôle d'un élément de réponse à la dioxine ou DRE. La lignée T-47D est connue pour contenir un taux élevé de récepteur AhR (170 femtomoles/mg protéines).
On transfecte de manière stable la lignée T-47D de cellules de cancer du sein avec un gène rapporteur, la trans-acétylase du chloramphénicol, CAT en abrégé, placé sous le contrôle d'un élément de réponse à la dioxine.
On constate que l'inhibition observée est dose-dépendante.

[6] = test system: élément de réponse à l'estradiol (ERE) du gène de la vitellogénine; experiment: Transient CAT reporter under estradiol response element (ERE) in T-47D cells; assay type: cell-based
Description: (§1) On a transfecté de façon transitoire les cellules T-47D avec différentes constructions CAT sous contrôle de l'élément de réponse à l'estradiol (ERE) du gène de la vitellogénine ou celui, plus faible, du gène du récepteur de la progestérone, ainsi que des éléments de réponse à la progestérone (PRE) et aux androgènes (ARE) du virus murin MMTV et d'un élément de réponse à la vitamine D (VDRE) synthétique.

[7] = test system: éléments de réponse à la progestérone (PRE); experiment: Transient CAT reporter under progesterone response element (PRE) in T-47D cells; assay type: cell-based
Description: as §1

[8] = test system: éléments de réponse aux androgènes (ARE); experiment: Transient CAT reporter under androgen response element (ARE) in T-47D cells; assay type: cell-based
Description: as §1

[9] = test system: élément de réponse à la vitamine D (VDRE); experiment: Transient CAT reporter under vitamin D response element (VDRE) in T-47D cells; assay type: cell-based
Description: as §1

[10] = test system: cyp 1A1; experiment: In vivo induction of cyp 1A1 in rats by BaP/DMBA (immunoblot of lung and kidney); design: species or system rats Sprague-Dawley; conditions: equal concentration of substances (1 mg/kg BaP/DMBA plus 1 mg/kg resvératrol)
Method: Des rats Sprague-Dawley femelle ont été traités par une combinaison de Benzol [a]pyrène et de DMBA (diméthylbenzanthracène), deux ligands AhR présents dans la fumée de cigarette. Des expériences préliminaires ont montré que cyp 1A1 était induit à partir de 1 mg/kg des deux ligands administrés ensemble. […] Les animaux ont été sacrifiés et les organes prélevés. Des extraits cellulaires totaux ont été préparés et analysés par immunoblot pour détecter l'expression de cyp 1A1 dans ces tissus.

Compound | effets agonistes / antagonistes [1] | Kd [2] | répression de l'induction indirecte des enzymes de phase II (NAD(P)H quinone réductase) provoquée par la dioxine [3] | fold induction at 0.001 µM ([4]; Homo sapiens, T47D, T-47D, read-out: induction du promoteur de VIH (facteur)) | effet sur l'induction de CAT par TCDD [5] | inhibition at 1 µM ([1]; Homo sapiens, T47D, 48 h, read-out: inhibition de l'induction de la protéine CYP1A1) | excès nécessaire pour observer l'inhibition ex vivo ([1]; ex vivo) | effet inhibiteur compared with α-naphthoflavone ([1]; induction of CYP1A1 by TCDD, T-47D) | affinité compared with indole-3-carbinol [2] | effet estrogénique sur l'ERE, fraction of the effect of estradiol ([6]; T-47D, CAT) | effet estrogénique, fraction of the effect of 10^-10 M estradiol ([6]; from 10^-5 M Resvératrol) | effet sur PRE [7] | effet sur ARE [8] | effet sur VDRE [9] | suppression de l'induction du promoteur de VIH par la dioxine ([4]; Resvératrol 10^-6 M) | suppression de l'induction de cyp 1A1 in vivo [10]
O=c1cc(-c2ccccc2)oc2c1ccc1ccccc12 [α-NF, alpha-7,8-benzoflavone, reference compound] | effets agonistes autant qu'antagonistes | 3 nM | ne répriment l'induction indirecte |  |  |  |  |  |  |  |  |  |  |  |  | 
Clc1cc2c(cc1Cl)Oc1cc(Cl)c(Cl)cc1O2 [TCDD, 2,3,7,8-tétrachlorodibenzo (p)dioxine, reference compound] |  | 3 nM |  | 3 |  |  |  |  |  |  |  |  |  |  |  | 
Oc1ccc(/C=C/c2cc(O)cc(O)c2)cc1 [Resvératrol, trans-resvératrol] | pur antagoniste |  | ne répriment l'induction indirecte |  | effet inhibiteur | ~60% | 5000 fois | légérement inférieur | affinité plus forte | 1/500.000 | 1/5 | aucun effet | aucun effet | aucun effet | totalement supprimée | totalement supprimée
